# From patent US20160206688A1, “METHODS FOR TREATING BACTEREMIA AND OSTEOMYELITIS USING ORITAVANCIN” (THE MEDICINES COMPANY, priority 2013, published 2016)
# Where two headings read alike, the source gives them in different places.
# Experiments:
# [1] = Tolerability and laboratory findings in compassionate use subject; format: in vivo, human
# Description: In response to a compassionate use request, oritavancin was administered to a subject having bacteremia.
# The demographics of the subject included the following: […]; […]; […]; weight—190 lb; height—70 inches. The subject's medical history included the following: CAD s/p CABG 8/08 (SVG to OM1, SVG to PDA); severe AS s/p bioprosthetic AVR 8/08; lumbar discectomy and fusion February 2011, hardware removed Jan. 11, 2013; PVD S/p bilateral CEA 2010; CKD s/p renal artery stenting December 2011, Baseline Cr approx 3.0 s; HTN; CHF; HLD; mild pulmonary fibrosis; BPH; GERD; arthritis.
# Treatment as of Feb. 8, 2013: oritavancin (1200 mg IV, Q2D×3 times, then QW×5 times).
# [2] = test system: Coagulase-negative staphylococci; experiment: Broth microdilution MIC, European bacteraemia isolates 2010-2012; format: cell-based, coagulase-negative staphylococci (CoNS)
# Description: A total of 2,904 clinical strains responsible for documented bacteremia among unique hospitalized patients in 38 hospitals in 11 European Union countries. Israel, Russia, Turkey and Ukraine were included in this study (2010-2012). Isolates were submitted to a central monitoring laboratory (JMI Laboratories, North Liberty. Iowa. USA), following previously established protocols. Bacterial species identification was performed by using an automated system (Vitek®2; bioMèrieux, Hazelwood, Mo., USA) or conventional biochemical algorithms, as required.
# Isolates were tested for susceptibility by broth microdilution methods following the Clinical and Laboratory Standards Institute (CLSI; M07-A9, 2012) document. Susceptibility testing was performed in cation-adjusted Mueller-Hinton broth (CA-MHB) using dry-form panels manufactured by Thermo Fisher Scientific, formerly TREK Diagnostics Systems/Sensititre (Cleveland. Ohio, USA). These panels provide results equivalent to the CLSI-approved broth microdilution method supplemented with 0.002% polysorbate-80.
# Quality assurance was performed by concurrent testing of CLSI-recommended (M100-S23, 2013) strains: E. faecalis ATCC 29212 and S. aureus ATCC 29213. Interpretation of comparator MIC results was in accordance with published CLSI (M100-S23) and European Committee on Antimicrobial Susceptibility Testing (EUCAST, 2013) criteria.
# [3] = CoNS, Methicillin-resistant (509), at ≦0.008 mg/L
# [4] = CoNS, Methicillin-susceptible (137), at ≦0.008 mg/L
# [5] = CoNS, Teicoplanin MIC ≧8 mg/L (72), at ≦0.008 mg/L
# [6] = Table 1, CoNS, Methicillin-resistant (509)
# [7] = Table 1, CoNS, Methicillin-susceptible (137)
# [8] = Table 2, Coagulase-negative staphylococci (646)
# [9] = read-out: cumulative % inhibited at MIC
compound,measurement,setting,value
"CN[C@H](CC(C)C)C(=O)N[C@H]1C(=O)N[C@@H](CC(N)=O)C(=O)N[C@H]2C(=O)N[C@H]3C(=O)N[C@H](C(=O)N[C@H](C(=O)O)c4cc(O)cc(O)c4-c4cc3ccc4O)[C@H](O[C@H]3C[C@](C)(N)[C@@H](O)[C@H](C)O3)c3ccc(c(Cl)c3)Oc3cc2cc(c3O[C@@H]2O[C@H](CO)[C@@H](O)[C@H](O)[C@H]2O[C@H]2C[C@](C)(NCc3ccc(-c4ccc(Cl)cc4)cc3)[C@@H](O)[C@H](C)O2)Oc2ccc(cc2Cl)[C@H]1O [Oritavancin, N-(4-(4-chlorophenyl)benzyl)A82846B]",creatinine,"[1]; last post-dose, reported Feb. 11, 2013, pre-treatment levels 2.8 to 3",3.1
same,tolerability,"[1]; reported Feb. 20, 2013",tolerating oritavancin well without the adverse events from their previous antibiotics
same,creatinine,"[1]; reported Feb. 20, 2013, went down from 3.1",1.6
same,MIC50,[2],0.03 mg/L
same,MIC90,[2],0.06 mg/L
same,MIC50 and MIC90 lower than linezolid,[2]; CoNS isolates,16 fold
same,MIC values lower than vancomycin,[2]; CoNS isolates,32- to 64 fold
same,MIC results relative to strains with teicoplanin MIC≦4 mg/L,[2]; CoNS with decreased susceptibility to teicoplanin (MIC≧8 mg/L),two-fold higher
same,MIC,"[2]; CoNS with decreased susceptibility to teicoplanin (MIC≧8 mg/L), read-out: highest MIC value",0.25 mg/L
same,Number inhibited at MIC,"[2]; CoNS, Methicillin-resistant (509), at 0.015 mg/L",77
same,Number inhibited at MIC,"[2]; CoNS, Methicillin-resistant (509), at 0.03 mg/L",181
same,Number inhibited at MIC,"[2]; CoNS, Methicillin-resistant (509), at 0.06 mg/L",114
same,Number inhibited at MIC,"[2]; CoNS, Methicillin-resistant (509), at 0.12 mg/L",33
same,Number inhibited at MIC,"[2]; CoNS, Methicillin-resistant (509), at 0.25 mg/L",4
same,Number inhibited at MIC,[2]; [3],100
same,cumulative % inhibited at MIC,[2]; [3],19.7%
same,Number inhibited at MIC,"[2]; CoNS, Methicillin-susceptible (137), at 0.015 mg/L",28
same,Number inhibited at MIC,"[2]; CoNS, Methicillin-susceptible (137), at 0.03 mg/L",50
same,Number inhibited at MIC,"[2]; CoNS, Methicillin-susceptible (137), at 0.06 mg/L",21
same,Number inhibited at MIC,"[2]; CoNS, Methicillin-susceptible (137), at 0.12 mg/L",1
same,Number inhibited at MIC,[2]; [4],37
same,cumulative % inhibited at MIC,[2]; [4],27.0%
same,Number inhibited at MIC,"[2]; CoNS, Teicoplanin MIC ≧8 mg/L (72), at 0.015 mg/L",1
same,inhibition at 0.015 µg/mL,"[2]; CoNS, Teicoplanin MIC ≧8 mg/L (72), at 0.015 mg/L, read-out: cumulative % inhibited at MIC",2.8%
same,Number inhibited at MIC,"[2]; CoNS, Teicoplanin MIC ≧8 mg/L (72), at 0.03 mg/L",15
same,inhibition at 0.03 µg/mL,"[2]; CoNS, Teicoplanin MIC ≧8 mg/L (72), at 0.03 mg/L, read-out: cumulative % inhibited at MIC",23.6%
same,Number inhibited at MIC,"[2]; CoNS, Teicoplanin MIC ≧8 mg/L (72), at 0.06 mg/L",36
same,inhibition at 0.06 µg/mL,"[2]; CoNS, Teicoplanin MIC ≧8 mg/L (72), at 0.06 mg/L, read-out: cumulative % inhibited at MIC",73.6%
same,Number inhibited at MIC,"[2]; CoNS, Teicoplanin MIC ≧8 mg/L (72), at 0.12 mg/L",15
same,inhibition at 0.12 µg/mL,"[2]; CoNS, Teicoplanin MIC ≧8 mg/L (72), at 0.12 mg/L, read-out: cumulative % inhibited at MIC",94.4%
same,Number inhibited at MIC,"[2]; CoNS, Teicoplanin MIC ≧8 mg/L (72), at 0.25 mg/L",4
same,inhibition at 0.25 µg/mL,"[2]; CoNS, Teicoplanin MIC ≧8 mg/L (72), at 0.25 mg/L, read-out: cumulative % inhibited at MIC",100%
same,Number inhibited at MIC,[2]; [5],1
same,cumulative % inhibited at MIC,[2]; [5],1.4%
same,MIC50,[2]; [6],0.03 mg/L
same,MIC90,[2]; [6],0.06 mg/L
same,MIC50,[2]; [7],0.03 mg/L
same,MIC90,[2]; [7],0.06 mg/L
same,MIC50,"[2]; Table 1, CoNS, Teicoplanin MIC ≧8 mg/L (72), read-out: MIC 50%",0.06 mg/L
same,MIC90,"[2]; Table 1, CoNS, Teicoplanin MIC ≧8 mg/L (72), read-out: MIC 90%",0.12 mg/L
same,MIC50,[2]; [8],0.03 mg/L
same,MIC90,[2]; [8],0.06 mg/L
same,MIC Range,[2]; [8],≦0.008-0.25 mg/L
same,inhibition at 0.015 µg/mL,[2]; [9],41.8%
same,inhibition at 0.03 µg/mL,[2]; [9],79.4%
same,inhibition at 0.06 µg/mL,[2]; [9],96.7%
same,inhibition at 0.12 µg/mL,[2]; [9],100%
same,inhibition at 0.015 µg/mL,"[2]; read-out: cumulative % inhibited at MIC, CoNS, Methicillin-resistant (509), at 0.015 mg/L",34.8%
same,inhibition at 0.03 µg/mL,"[2]; read-out: cumulative % inhibited at MIC, CoNS, Methicillin-resistant (509), at 0.03 mg/L",70.3%
